Measurements taken from patent US20210205292A1, “INHIBITORS OF CREB-CBP INTERACTION FOR TREATMENT OF LEUKEMIA” (The Board of Trustees of the Leland Stanford Junior …, priority 2016, published 2021).
pIC50: −log10 of the molar value. Several values for one entry are separate records, joined by “and”; a condition that tells them apart may be missing. Equal values may be shown once.

Columns and labels:
[1] = target: T1, CREB-CBP binding (KID-KIX) (Homo sapiens, UniProt Q92793); experiment: Split Renilla luciferase complementation assay; type: cell-based; conditions: 293T cells treated with forskolin; read-out: IC50, inhibition of the interaction between CREB and CBP
T1 construct: the KID and KIX domains were fused to the N- and C-terminal regions of Renilla luciferase, respectively; expressed in transfected cells; host or cells: 293T cells treated with forskolin
T1 sequence (Q92793 587-666 limits assumed): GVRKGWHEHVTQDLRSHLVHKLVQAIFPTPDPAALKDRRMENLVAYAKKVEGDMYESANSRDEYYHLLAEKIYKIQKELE
Protocol: KG-1 cell lines were created to express luciferase in a CREB-dependent or non-CREB-dependent fashion using lentiviral gene delivery. Cells were sorted for mCherry expression by flow cytometry and selected with puromycin. Luciferase activity was measured on a […] using the Promega Luciferase Activity Kit (Promega) per manufacturer's instructions following six hours of treatment with Compound A or 0.1% DMSO. The split Renilla luciferase complementation assay has been described previously (Li BX, and Xiao X. Discovery of a small-molecule inhibitor of the KIX-KID interaction. Chembiochem: a European journal of chemical biology. 2009; 10(17):2721-4). In this assay, the KID and KIX domains were fused to the N- and C-terminal regions of Renilla luciferase, respectively. Once KIX binds phosphorylated KID, the Renilla luciferase regions were brought together, resulting in luciferase activity.
To test the ability of Compound A to disrupt CREB-CBP binding in cells, a split Renilla luciferase complementation assay was performed. […] This early timepoint was selected to permit accurate reporter gene activity measurement prior to the onset of anticipated global cell dysfunction or death induced by Compound A. Treatment with 3 μM Compound A reduced luciferase activity by 33.2±7.7% at this timepoint. […] Thus, Compound A inhibits CREB function through disruption of CREB:CBP interaction.

normal bone marrow cells = experiment: Normal bone marrow samples, viability; type: cell-based, human; conditions: 72 hours
[2] = target: T2, KIX domain of CBP, mutant lacking amino acids 586-602 (GST fusion) (Homo sapiens, UniProt Q92793); experiment: Biacore surface plasmon resonance, binding to KIX deletion mutant versus native KIX; conditions: 5 μM
T2 construct: spans CBP amino acids 586-666; made in house; host or cells: E. coli BL21(DE3)
T2 sequence (Q92793 with tags, fused parts or gaps, stated change not applied): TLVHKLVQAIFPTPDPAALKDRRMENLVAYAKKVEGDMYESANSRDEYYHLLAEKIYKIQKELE
Protocol: KIX domain mutants were created by standard cloning and mutagenesis methods in the pGEX4T3 vector (GE Healthcare Life Sciences). GST-KIX fusion proteins were expressed in BL21(DE3-) cells (New England Biolabs) following induction with 1 mM IPTG for 6 hours at 37 degrees. GST-KIX and its mutants were purified with the B-PER GST Fusion Protein Spin Purification Kit (Thermo Scientific/Pierce). Surface Plasmon Resonance (Biacore) analysis was performed on a GE Biacore 3000 surface plasmon resonance instrument in collaboration with the Stanford Protein and Nucleic Acid (PAN) Facility.
To confirm the binding of Compound A to the KIX domain of CBP, the KIX domain was expressed and purified as a fusion protein with Glutathione-S-Transferase (GST). Binding of Compound A to the KIX domain and two KIX domain mutants in which residues critical for CREB binding were altered or removed (Arg-600 mutated to Alanine or deletion of amino acids 586-602) was determined by Surface Plasmon Resonance (Biacore) analysis (FIG. 1, panel B). Mutation of Arginine-600 to Alanine reduced binding of Compound A by ˜45%, while a KIX domain mutant lacking amino acids 586-602 reduced binding by ˜70%. […] A hypothetical binding model between Compound A and CBP KIX domain is shown (FIG. 1, panel C). […]

Caspase-3 = Caspase-3 protease activity (ApoTarget kit); type: cell-based; set-up: unit of the concentration uncertain
Source text: The ApoTarget Caspase-3 Protease Activity Kit (Invitrogen) was used per manufacturer's instructions.
The balance between pro- and anti-apoptotic protein expression contributes to cell fate decisions. CREB regulates the expression of several anti-apoptotic proteins, including Bcl-2, Bcl-XL and Mcl-1. Bcl-2 expression in particular is known to mediate resistance to chemotherapy and influence clinical outcome in a number of cancer types, including AML. The ability of Compound A to cause apoptosis by disrupting the CREB-driven expression of these anti-apoptotic proteins was examined. In HL-60 cells treated with Compound A, apoptosis is induced in a dose- and time-dependent manner. […] Compound A elicited apoptosis through the intrinsic apoptosis pathway, with activation of Caspase-3 (FIG. 5, panel B) and detectable Caspase-9 cleavage (data not shown). Relative caspase-3 activity at 24 hours: 5.4±0.8 for etoposide, 1±0.78, 0.93±0.71, 1.02±0.67, 2.9±0.58, 5.1±0.63, 4.1±0.71 for 0, 1, 1.5, 2, 2.5 and 3 mM Compound A, respectively. Activity at 72 hours: 1.2±0.05 for etoposide, 1.0±0.02, 1.9±0.03, 3.7±0.04, 4.4±0.05, 2.1±0.03, 1.9±0.02 for 0, 1, 1.5, 2, 2.5 and 3 mM Compound A, respectively. The transcription of Bcl-2 decreased following 72 hours of 2 mM Compound A treatment (FIG. 5, panel C), and this was verified by Western blot analysis (FIG. 5, panel D). […] To confirm whether loss of Bcl-2 function alone is sufficient to induce apoptosis in AML cells, HL-60 cells were treated with the validated Bcl-2 inhibitor ABT-737 (50 to 200 nM). […] Bcl-2 levels are influenced by CREB expression in these AML cell lines (FIG. 11, panel C).

SMILES: N#Cc1ccc(NC(=O)c2cc3ccccc3cc2O)cc1 [Compound A, N-(4-cyanophenyl)-3-hydroxy-2-naphthamide]
- pIC50 [1]: ~5.49 and 5.49
- viability of normal bone marrow cells (normal bone marrow cells): did not significantly change
- reduction of binding of Compound A by KIX mutant lacking amino acids 586-602 [2]: ~70%
- relative caspase-3 activity (Caspase-3; 24 hours, 1 (unit uncertain)): 0.93±0.71
- relative caspase-3 activity (Caspase-3; 24 hours, 1.5 (unit uncertain)): 1.02±0.67
- relative caspase-3 activity (Caspase-3; 24 hours, 2 (unit uncertain)): 2.9±0.58
- relative caspase-3 activity (Caspase-3; 24 hours, 2.5 (unit uncertain)): 5.1±0.63
- relative caspase-3 activity (Caspase-3; 24 hours, 3 (unit uncertain)): 4.1±0.71
- relative caspase-3 activity (Caspase-3; 72 hours, 1 (unit uncertain)): 1.9±0.03
- relative caspase-3 activity (Caspase-3; 72 hours, 1.5 (unit uncertain)): 3.7±0.04
- relative caspase-3 activity (Caspase-3; 72 hours, 2 (unit uncertain)): 4.4±0.05
- relative caspase-3 activity (Caspase-3; 72 hours, 2.5 (unit uncertain)): 2.1±0.03
- relative caspase-3 activity (Caspase-3; 72 hours, 3 (unit uncertain)): 1.9±0.02
